Laboratory results from US10745382B2 (BRISTOL-MYERS SQUIBB COMPANY, priority 2015, dated 2020).
pIC50: −log10 of the molar value.

Target: T1, PD-1/PD-L1 (Homo sapiens, UniProt Q9NZQ7)
T1 construct: made in house; host or cells: HEK293T
Test: PD-1/PD-L1 Homogenous Time-Resolved Fluorescence (HTRF) binding assay
Details: PD-L1-His 10 nM, PD-1-Ig 20 nM; value given as range class; read-out: Range or IC50
Outline: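 Read-out is time-resolved FRET between europium cryptate-labelled anti-Ig (1 nM final) and APC-labelled anti-His (20 nM final), both dispensed onto the binding mix. Assay buffer: dPBS containing 0.1% bovine serum albumin and 0.05% Tween-20.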

T1 sequence (Q9NZQ7 with tags, fused parts or gaps): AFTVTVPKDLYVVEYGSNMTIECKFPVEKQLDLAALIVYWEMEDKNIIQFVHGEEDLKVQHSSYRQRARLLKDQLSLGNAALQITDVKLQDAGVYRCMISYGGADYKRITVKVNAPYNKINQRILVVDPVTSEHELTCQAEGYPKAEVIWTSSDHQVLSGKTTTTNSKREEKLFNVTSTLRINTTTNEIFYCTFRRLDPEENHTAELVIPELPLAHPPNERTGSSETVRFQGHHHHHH

pIC50, 8.00 to 9.68:
CN(CCCOc1cccc(-c2cccc(COc3cc(OCc4cncc(C#N)c4)c(CN[C@](C)(CO)C(=O)O)cc3Cl)c2Cl)c1Cl)C[C@H](O)CO [Example 2064, (R)-2-((5-chloro-2-((5-cyanopyridin-3-yl)methoxy)-4-((2,2′-dichloro-3′-(3-(((S)-2,3-dihydroxypropyl)(methyl)amino)propoxy)-[1,1′-biphenyl]-3-yl)methoxy)benzyl)amino)-3-hydroxy-2-methylpropanoic Acid]
C[C@](CO)(NCc1cc(Cl)c(OCc2cccc(-c3cccc(OCCCN4CCC(O)(CO)CC4)c3Cl)c2Cl)cc1OCc1cncc(C#N)c1)C(=O)O [Example 2065, (R)-2-((5-chloro-2-((5-cyanopyridin-3-yl)methoxy)-4-((2,2′-dichloro-3′-(3-(4-hydroxy-4-(hydroxymethyl)piperidin-1-yl)propoxy)-[1,1′-biphenyl]-3-yl)methoxy)benzyl)amino)-3-hydroxy-2-methylpropanoic Acid]
CC(CO)(CO)NCc1cc(Cl)c(OCc2cccc(-c3cccc(OCCCN4CC[C@@H](O)C4)c3Cl)c2Cl)cc1OCc1cccc(Cl)c1 [Example 2066, (R)-2-((5-chloro-2-((3-chlorobenzyl)oxy)-4-((2,2′-dichloro-3′-(3-(3-hydroxypyrrolidin-1-yl)propoxy)-[1,1′-biphenyl]-3-yl)methoxy)benzyl)amino)-2-methylpropane-1,3-diol]
Cc1c(COc2cc(OCc3cncc(C#N)c3)c(CNC(C)(C)CO)cc2Cl)cccc1-c1cccc(OCCCN2CC[C@@H](O)C2)c1Cl [Example 2067, (R)-5-((4-chloro-5-((2′-chloro-3′-(3-(3-hydroxypyrrolidin-1-yl)propoxy)-2-methyl-[1,1′-biphenyl]-3-yl)methoxy)-2-(((1-hydroxy-2-methylpropan-2-yl)amino)methyl)phenoxy)methyl)nicotinonitrile]
Cc1c(COc2cc(OCc3cncc(C#N)c3)c(CN(C)CC(C)(C)O)cc2Cl)cccc1-c1cccc(OCCCN2CC[C@@H](O)C2)c1Cl [Example 2068, (R)-5-((4-chloro-5-((2′-chloro-3′-(3-(3-hydroxypyrrolidin-1-yl)propoxy)-2-methyl-[1,1′-biphenyl]-3-yl)methoxy)-2-(((2-hydroxy-2-methylpropyl)(methyl)amino)methyl)phenoxy)methyl)nicotinonitrile]
CC(=O)N[C@H]1CCN(CCCOc2cccc(-c3cccc(COc4cc(OCc5cncc(C#N)c5)c(CNC(CO)CO)cc4Cl)c3C)c2Cl)C1 [Example 2069, (S)—N-(1-(3-((2-chloro-3′-((2-chloro-5-((5-cyanopyridin-3-yl)methoxy)-4-(((1,3-dihydroxypropan-2-yl)amino)methyl)phenoxy)methyl)-2′-methyl-[1,1′-biphenyl]-3-yl)oxy)propyl)pyrrolidin-3-yl)acetamide]
CC(=O)N[C@H]1CCN(CCCOc2cccc(-c3cccc(COc4cc(OCc5cncc(C#N)c5)c(CN[C@](C)(CO)C(=O)O)cc4Cl)c3Cl)c2Cl)C1 [Example 2070, (R)-2-((4-((3′-(3-((S)-3-acetamidopyrrolidin-1-yl)propoxy)-2,2′-dichloro-[1,1′-biphenyl]-3-yl)methoxy)-5-chloro-2-((5-cyanopyridin-3-yl)methoxy)benzyl)amino)-3-hydroxy-2-methylpropanoic Acid]
CC(=O)N[C@H]1CCN(CCCOc2cccc(-c3cccc(COc4cc(OCc5cncc(C#N)c5)c(CN[C@](C)(CO)C(=O)O)cc4Cl)c3C)c2Cl)C1 [Example 2071, (R)-2-((4-((3′-(3-((S)-3-acetamidopyrrolidin-1-yl)propoxy)-2′-chloro-2-methyl-[1,1′-biphenyl]-3-yl)methoxy)-5-chloro-2-((5-cyanopyridin-3-yl)methoxy)benzyl)amino)-3-hydroxy-2-methylpropanoic Acid]
